Measurements reported in paper PMC5802399 (Nature, 2017).
Read-outs that look alike come from different tables or passages of the source. Bridge positions count the residues as written; N and C are the ends. Ends that are not written are not given here. Peptide text beside a SMILES is read from it.

How the values were obtained:
H1N1 CA09 virus [1] = tested on: H1N1 CA09 virus; design: species or system BALB/c mice; details: mouse, in vivo
PR8 influenza virus = type: cell-based, Influenza A H1N1
H1N1 CA09 virus [2] = tested on: H1N1 CA09 virus; design: species or system BALB/c mice; details: mouse, in vivo; remark: listed apart in the source
[3] = type: physicochemical; details: pH 7.4
[4] = type: physicochemical; details: pH 7.4; remark: listed apart in the source
HK/X31 (H3N2), group 2 = type: cell-based, Influenza A
[5] = tested on: CA09 influenza virus (H1N1); type: cell-based, Influenza A H1N1
[6] = tested on: group-1 influenza strains (H1N1, H5N1 and H6N2); type: cell-based, Influenza A

Q: Which “protection after intravenous administration” value (H1N1 CA09 virus [1]) does the source give for `CC[C@H](C)[C@@H]1NC(=O)[C@H](CCC(=O)O)NC(=O)[C@H](C)NC(=O)[C@H](C)NC(=O)[C@H]([C@@H](C)O)NC(=O)[C@H](CCC(N)=O)NC(=O)[C@@H]2CSSC[C@H](NC(=O)[C@H](CC(N)=O)NC(=O)CNC(=O)[C@H](CC(N)=O)NC(=O)[C@H](CC(=O)O)NC(=O)[C@H](C(C)C)NC(=O)[C@H](CCSC)NC(=O)[C@H]([C@@H](C)CC)NC(=O)[C@H](CCCCN)NC(=O)[C@H](C(C)C)NC(=O)[C@H]([C@@H](C)O)NC(=O)[C@H](Cc3ccc(O)cc3)NC(=O)CNC(=O)[C@H](Cc3ccccc3)NC(=O)[C@H](C)NC(=O)[C@H](CCCNC(=N)N)NC(=O)[C@H](Cc3c[nH]c4ccccc34)NC1=O)C(=O)N[C@@H](CCCNC(=N)N)C(=O)N[C@@H](CC(C)C)C(=O)N[C@@H](Cc1c[nH]cn1)C(=O)N[C@@H](C(C)C)C(=O)N[C@H](C(=O)O)CSSC[C@H](N)C(=O)N[C@@H]([C@@H](C)CC)C(=O)N[C@@H](CCC(=O)O)C(=O)N[C@@H](CCC(N)=O)C(=O)N[C@@H](CO)C(=O)N[C@@H](Cc1ccccc1)C(=O)N[C@@H]([C@@H](C)O)C(=O)N[C@@H]([C@@H](C)O)C(=O)N[C@@H](CC(C)C)C(=O)N[C@@H](Cc1ccccc1)C(=O)N[C@@H](C)C(=O)N2` [HB1.6928.2.3] (H-CIEQSFTTLFACQTAAEIWRAFGYTVKIMVDNGNCRLHVC-OH; disulfide 1-40, 12-35; N-terminus and C-terminus assumed) here?
A: Its value is “little protection”.

Q: And the “protection after repeated administration compared with no prior dosing” value (H1N1 CA09 virus [1])?
A: The value was “remains equally protective”.

Q: What about the survival (H1N1 CA09 virus [1]) of the same compound?
A: The survival was 100%.

Q: What about the “neutralization of PR8 virus” value (PR8 influenza virus) of the same compound?
A: The value was “strongly neutralized”.

Q: And the survival (H1N1 CA09 virus [2])?
A: The survival was 100%.

Q: What about the weight loss (H1N1 CA09 virus [2]) of the same compound?
A: Its weight loss is “less than 10%”.

Q: What about the Tm [3] of the same compound?
A: The Tm was greater than 95 °C.

Q: And the “reduction of binding activity after incubation at 80 °C” value [4]?
A: Its value is “no detectable loss of binding”.

Q: And the “neutralization of H3N2” value (HK/X31 (H3N2), group 2)?
A: The value was “no neutralization”.

Q: What about the “EC50 for Cal09 (CA09), fold lower than FI6v3 or HB36.6” value [5] of the same compound?
A: Its value is “more than 100 fold”.

Q: What about the “neutralization of CA09 virus” value [5] of the same compound?
A: The value was “strongly neutralized”.

Q: What about the “efficiency (EC50) in inhibiting infection, compared with HB36.6 and FI6v3” value [6] of the same compound?
A: The value was “most efficiently inhibited infection”.

Q: For “HB1.5702.3: chemically synthesized HA binder (TSGVRATSKFAALIAAEIAREFGYTVDVQEKNGEWRVVFD)”, which “trypsin concentration above which gel bands weaken (proteolytic degradation)” value (trypsin) is on record?
A: Its value is greater than 2.86 µM.

Q: For “HB1.6394.2: chemically synthesized HA binder containing disulfides (CQEYRFTNPFACQIALEILRDFGYACTVQTINGECRVRCC; disulfide (positions not given here))”, which degradation by trypsin (trypsin) is on record?
A: The degradation by trypsin was “no degradation”.

Q: For “HB1.6928.2: chemically synthesized HA binder containing disulfides (CIEQSFTTLFACQTAAEIWRAFGYTVKIMVDNGNCRLHVC; disulfide (positions not given here))”, which degradation by trypsin (trypsin) is on record?
A: Its degradation by trypsin is “no degradation”.

Q: Which Tm [3] does the source give for “TMTSITTSPFAAEIAARIWAEFGYTVRIETRGKTVHVTVD [HB1.6811.3]” here?
A: Its Tm is 70 °C.

Q: For “TSGVRATSKFAALIAAEIAREFGYTVDVQEKNGEWRVVFD [HB1.5702.3.3]”, which Tm [3] is on record?
A: Its Tm is 70 °C.

Q: For “TSRVRATSKFAALIAAEIAREFGYTVDVQEVNGQWEVTFD [HB1.5702.2]”, which Tm [3] is on record?
A: The Tm was 72 °C.
